“Also recorded” adds a separate entry of the source. Read-outs that look alike come from different tables or passages of the source.
How the values were obtained:
dorsal raphe neurons = conditions: systemic administration (I.V. and intragastric for metabolites), rats; cited from earlier work
[1] = cited from earlier work
human 5-HT1A receptor = target: T1, human 5-HT1A receptor (Homo sapiens, UniProt P08908); assay: 5-HT1A receptor binding assay (3H-8-OH-DPAT)
T1 construct: expressed in transfected cells; host or cells: HEK293
T1 sequence (P08908 1-422): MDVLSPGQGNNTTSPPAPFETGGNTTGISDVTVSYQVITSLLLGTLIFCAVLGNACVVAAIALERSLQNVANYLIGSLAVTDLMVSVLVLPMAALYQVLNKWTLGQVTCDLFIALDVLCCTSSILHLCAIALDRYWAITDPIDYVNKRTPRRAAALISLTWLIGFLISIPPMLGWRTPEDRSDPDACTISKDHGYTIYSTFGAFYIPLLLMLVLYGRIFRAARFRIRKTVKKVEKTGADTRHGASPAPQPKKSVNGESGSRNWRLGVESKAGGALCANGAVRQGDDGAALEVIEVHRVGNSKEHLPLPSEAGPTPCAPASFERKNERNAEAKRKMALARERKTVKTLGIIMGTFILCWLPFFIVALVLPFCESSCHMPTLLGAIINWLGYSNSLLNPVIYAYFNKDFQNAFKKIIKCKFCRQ

[2] = cited from earlier work; remark: listed apart in the source
[3] = Human pharmacokinetic study, multiple oral buspirone doses (25 days); assay type: in vivo
Excerpt: The human dosing schedule is shown below. |______________________________________ […] | Interval BID Dose (mg) (Study Day) |______________________________________ […] | 3 15 15 […] | 5 30 25 |______________________________________

[4] = system: rat pup locomotor activity; assay: Locomotor activity (grid cell crossings) in the rat pup; assay type: in vivo, rat (Harlan Sprague-Dawley pups); conditions: sc; for locomotor activity (in words): 0.03-1 mg/kg
[5] = Modified Vogel Conflict test; assay type: in vivo; conditions: earlier in-house testing
Excerpt: Earlier in-house functional testing of BMY 28674 utilized an in vivo test method based on modification of the Vogel Conflict test, a simple reliable conflict procedure for testing antianxiety agents (see: Vogel, et al., Psychopharmacologia, (Berl.) 21, pp. 1-7, 1971). […] No useful antianxiety activity has been ascribed to BMY 28674 previously.

[6] = Previous laboratory testing for antianxiety properties; conditions: laboratory methods developed for azapirone compounds
[7] = system: rat pup ultrasonic vocalization; assay: Rat pup isolation-induced ultrasonic vocalization test; assay type: in vivo, rat (Harlan Sprague-Dawley pups); conditions: for suppression of rat pup ultrasonic vocalization: 0.03-1 mg/kg, cold plate; for suppression of rat pup ultrasonic vocalization / ED50: sc, 30 min prior to test; for ED50: Rattus norvegicus, 0.5 h, doses refer to weight of the salt, read-out: ID50, dose predicted to reduce the number of calls by 50%; for anxiolytic activity in rat pup isolation-induced ultrasonic vocalization model (in words): in vivo

Structure (SMILES) | inhibition of dorsal raphe neuronal firing (dorsal raphe neurons) | affinity for human 5-HT1A receptor (in words) (human 5-HT1A receptor) | locomotor activity (in words) ([4]; 30 min prior to test) | suppression of rat pup ultrasonic vocalization [7] | ED50 [7] [mg/kg] | anxiolytic activity in rat pup isolation-induced ultrasonic vocalization model (in words) [7] | also measured
c1cnc(N2CCNCC2)nc1 [1-PP, 1-(2-pyrimidinyl)piperazine] | weak inhibition | does not demonstrate binding |  |  |  |  | anxiogenic properties in other behavioral testing paradigms ([1]; Cervo et al., 1988, Martin, 1991): displayed anxiogenic properties; antianxiety activity in certain other preclinical tests ([1]; U.S. Pat. No. 4,409,223): some antianxiety activity
Oc1cnc(N2CCNCC2)nc1 [5-hydroxy-1PP, reference compound] |  |  |  |  |  |  | abundance as metabolite in human urine ([2]; in vivo): most
O=C1CC2(CCCC2)C(O)C(=O)N1CCCCN1CCN(c2ncccn2)CC1 (stereo not drawn) [BMY 28674, 6-hydroxy-8-[4-[4-(2-pyrimidinyl)-piperazinyl]-butyl]-8-azaspiro[4.5]-7,9-dione] |  | binding affinity that approaches that of buspirone; also recorded: binding affinity closer to that of buspirone | significantly impaired | dose-dependent suppression | 0.13 | anxiolytic-like activity | blood concentration relative to 1-PP ([3]; after oral buspirone, BMY 28674 vs 1-PP): several-fold greater; also recorded: several-fold higher; blood levels compared to buspirone (in words) ([3]; oral buspirone BID, 12-hour dosing period): much higher and are sustained compared to buspirone; abundance as metabolite in human urine ([2]; after buspirone): second most abundant metabolite; ED50 ([4]; Rattus norvegicus, 0.5 h, 30 min prior to test, doses refer to weight of the salt, read-out: ID50 dose estimated to reduce locomotor activity): 0.41 mg/kg; ratio of doses impairing locomotor activity to doses suppressing ultrasonic calls ([4]; locomotor vs ultrasonic calls, 30 min): approximately 3 fold; antianxiety response in the Vogel test [5]: did not elicit an antianxiety response; antianxiety activity in previous testing [6]: no anxiolytic activity was detected; also recorded: No significant antianxiety activity; doses for anxiolytic activity relative to those required to suppress motor activity ([7]; vs suppression of motor activity): much lower doses
O=C1CC2(CCCC2)CC(=O)N1CCCCN1CCN(c2ncccn2)CC1 [Buspirone, reference compound] | potently inhibits |  | impaired | dose-dependent suppression | 0.1 | anxiolytic-like activity | concentration at 2 h ([3]; human, in vivo, po): < 1 ng/mL
